Measured values reported in article PMC5218480 (PLoS ONE, 2017).

Tested on: MV-4-11 cells
Assay: Gene expression microarray analysis (Affymetrix PrimeView) and GSEA
Type: cell-based, human
Parameters: RFU PODN (11730768_x_at) / Fold change /veh PODN (11730768_x_at) / RFU LINC00158 (11744669_a_at) / Fold change /veh LINC00158 (11744669_a_at) / RFU DUSP10 (11751237_a_at) / Fold change /veh DUSP10 (11751237_a_at) / RFU ID3 (11757404_x_at) / Fold change /veh ID3 (11757404_x_at) / RFU PLEKHG5 (11737974_s_at) / Fold change /veh PLEKHG5 (11737974_s_at) / RFU LRRC4B (11730491_at) / Fold change /veh LRRC4B (11730491_at) / RFU GIMAP4 (11747438_a_at) / Fold change /veh GIMAP4 (11747438_a_at) / RFU KRT8 (11758183_x_at) / Fold change /veh KRT8 (11758183_x_at) / RFU CNN1 (11734310_a_at) / Fold change /veh CNN1 (11734310_a_at) / RFU VPS37D (11726825_at) / Fold change /veh VPS37D (11726825_at) / RFU C10orf10 (11716522_x_at) / Fold change /veh C10orf10 (11716522_x_at) / RFU KIR2DL2 /// KIR2DL4 /// KIR2DL5A /// KIR2DL5B /// KIR2DS1 /// KIR2DS2 /// KIR2DS3 /// KIR2DS4 /// KIR3DL3 /// KIR3DL3 /// KIR3DS1 (11738374_at) / Fold change /veh KIR2DL2 /// KIR2DL4 /// KIR2DL5A /// KIR2DL5B /// KIR2DS1 /// KIR2DS2 /// KIR2DS3 /// KIR2DS4 /// KIR3DL3 /// KIR3DL3 /// KIR3DS1 (11738374_at) / RFU C1QL1 (11718748_at) / Fold change /veh C1QL1 (11718748_at) / RFU TMPRSS4 (11747572_a_at) / Fold change /veh TMPRSS4 (11747572_a_at) / RFU HAMP (11756126_x_at) / Fold change /veh HAMP (11756126_x_at) / RFU RNFT2 (11725882_a_at) / Fold change /veh RNFT2 (11725882_a_at) / RFU NR4A2 (11747474_a_at) / Fold change /veh NR4A2 (11747474_a_at) / RFU ABCC12 (11746883_a_at) / Fold change /veh ABCC12 (11746883_a_at) / RFU TMEM136 (11760407_x_at) / Fold change /veh TMEM136 (11760407_x_at) / RFU CLDN22 /// WWC2 (11732394_at) / Fold change /veh CLDN22 /// WWC2 (11732394_at) / RFU HLA-DPB1 (11760878_x_at) / Fold change /veh HLA-DPB1 (11760878_x_at) / RFU SPINT1 (11716480_a_at) / Fold change /veh SPINT1 (11716480_a_at) / RFU GAP43 (11754022_s_at) / Fold change /veh GAP43 (11754022_s_at) / RFU A4GNT (11735810_at) / Fold change /veh A4GNT (11735810_at) / RFU PRB3 (11715151_x_at) / Fold change /veh PRB3 (11715151_x_at) / RFU TUBB4B (11761932_at) / Fold change /veh TUBB4B (11761932_at) / RFU CAPN14 (11732068_a_at) / Fold change /veh CAPN14 (11732068_a_at) / RFU TMCC2 (11721928_a_at) / Fold change /veh TMCC2 (11721928_a_at) / RFU IRGQ (11745062_a_at) / Fold change /veh IRGQ (11745062_a_at) / RFU FAM174B (11720279_a_at) / Fold change /veh FAM174B (11720279_a_at) / RFU TMPRSS4 (11748680_a_at) / Fold change /veh TMPRSS4 (11748680_a_at) / RFU FAM212B (11763350_a_at) / Fold change /veh FAM212B (11763350_a_at) / RFU PLEKHG5 (11743358_a_at) / Fold change /veh PLEKHG5 (11743358_a_at) / RFU ZSCAN30 (11745921_a_at) / Fold change /veh ZSCAN30 (11745921_a_at) / RFU CMKLR1 (11741424_a_at) / Fold change /veh CMKLR1 (11741424_a_at) / RFU LOC101060620 /// MAPK8IP1 (11723275_at) / Fold change /veh LOC101060620 /// MAPK8IP1 (11723275_at) / RFU SPTSSB (11747773_x_at) / Fold change /veh SPTSSB (11747773_x_at) / RFU PRSS12 (11739890_at) / Fold change /veh PRSS12 (11739890_at) / RFU BIN1 (11741810_x_at) / Fold change /veh BIN1 (11741810_x_at) / RFU WNT11 (11732464_a_at) / Fold change /veh WNT11 (11732464_a_at) / RFU C10orf10 (11716521_a_at) / Fold change /veh C10orf10 (11716521_a_at) / RFU C5orf56 (11738089_at) / Fold change /veh C5orf56 (11738089_at) / RFU CYB561 (11721691_x_at) / Fold change /veh CYB561 (11721691_x_at) / RFU ANKRD19P (11752326_a_at) / Fold change /veh ANKRD19P (11752326_a_at) / RFU OR2T12 /// OR2T33 /// OR2T8 (11738714_s_at) / Fold change /veh OR2T12 /// OR2T33 /// OR2T8 (11738714_s_at) / RFU VCAN (11748164_a_at) / Fold change /veh VCAN (11748164_a_at) / RFU JSRP1 (11732532_at) / Fold change /veh JSRP1 (11732532_at) / RFU KRTAP10-11 (11738290_x_at) / Fold change /veh KRTAP10-11 (11738290_x_at) / RFU MYO3A (11730013_a_at) / Fold change /veh MYO3A (11730013_a_at) / RFU EBF3 (11725865_a_at) / Fold change /veh EBF3 (11725865_a_at) / RFU CAMK2N1 (11719241_x_at) / Fold change /veh CAMK2N1 (11719241_x_at) / RFU C5orf56 (11738088_a_at) / Fold change /veh C5orf56 (11738088_a_at) / RFU OLFML3 (11715873_a_at) / Fold change /veh OLFML3 (11715873_a_at) / RFU LOC100653217 /// NTM (11731650_a_at) / Fold change /veh LOC100653217 /// NTM (11731650_a_at) / RFU MAPK11 (11762145_a_at) / Fold change /veh MAPK11 (11762145_a_at) / RFU FIZ1 (11724087_x_at) / Fold change /veh FIZ1 (11724087_x_at) / RFU OASL (11726364_x_at) / Fold change /veh OASL (11726364_x_at) / RFU SOX15 (11748057_x_at) / Fold change /veh SOX15 (11748057_x_at) / RFU CD79A (11719716_a_at) / Fold change /veh CD79A (11719716_a_at) / RFU HIST1H1D (11736915_at) / Fold change /veh HIST1H1D (11736915_at) / RFU CASKIN2 (11723855_a_at) / Fold change /veh CASKIN2 (11723855_a_at) / RFU LOC730098 (11760151_x_at) / Fold change /veh LOC730098 (11760151_x_at) / RFU OR4N2 (11742367_at) / Fold change /veh OR4N2 (11742367_at) / RFU PRRT2 (11749266_a_at) / Fold change /veh PRRT2 (11749266_a_at) / RFU SNX32 (11753110_a_at) / Fold change /veh SNX32 (11753110_a_at) / RFU CDHR5 (11726645_a_at) / Fold change /veh CDHR5 (11726645_a_at) / RFU RCAN1 (11760418_a_at) / Fold change /veh RCAN1 (11760418_a_at) / RFU FAM167A (11723789_a_at) / Fold change /veh FAM167A (11723789_a_at) / RFU FAM26E (11764081_at) / Fold change /veh FAM26E (11764081_at) / RFU ISYNA1 (11749810_s_at) / Fold change /veh ISYNA1 (11749810_s_at) / RFU ACY1 (11761880_at) / Fold change /veh ACY1 (11761880_at) / RFU 11764098_at / Fold change /veh 11764098_at / RFU SAMD14 (11745864_x_at) / Fold change /veh SAMD14 (11745864_x_at) / RFU NPB (11741838_a_at) / Fold change /veh NPB (11741838_a_at) / RFU TMPRSS6 (11731388_a_at) / Fold change /veh TMPRSS6 (11731388_a_at) / RFU KRTAP10-2 (11738614_at) / Fold change /veh KRTAP10-2 (11738614_at) / RFU ARHGAP8 /// PRR5-ARHGAP8 (11727945_x_at) / Fold change /veh ARHGAP8 /// PRR5-ARHGAP8 (11727945_x_at) / RFU KRTAP5-7 /// NADSYN1 (11734609_at) / Fold change /veh KRTAP5-7 /// NADSYN1 (11734609_at) / RFU RASL12 (11751679_a_at) / Fold change /veh RASL12 (11751679_a_at) / RFU CDKN2B (11736163_a_at) / Fold change /veh CDKN2B (11736163_a_at) / RFU PRF1 (11729649_at) / Fold change /veh PRF1 (11729649_at) / RFU, ZNF638 /// ZNF638-IT1 / Fold change vs veh, ZNF638 /// ZNF638-IT1 / RFU, PANK3 / Fold change vs veh, PANK3 / RFU, SH3YL1 / Fold change vs veh, SH3YL1 / RFU, ZEB2 / Fold change vs veh, ZEB2 / RFU, NRIP1 / Fold change vs veh, NRIP1 / RFU, PTTG1IP / Fold change vs veh, PTTG1IP / RFU, CAPN2 / Fold change vs veh, CAPN2 / RFU, MED14 / Fold change vs veh, MED14 / RFU, SNORA58 / Fold change vs veh, SNORA58 / RFU, C1orf63 / Fold change vs veh, C1orf63 / RFU, LRRFIP1 / Fold change vs veh, LRRFIP1 / RFU, NDUFAF7 / Fold change vs veh, NDUFAF7 / RFU, SLC12A2 / Fold change vs veh, SLC12A2 / RFU, IBTK / Fold change vs veh, IBTK / RFU, ESF1 / Fold change vs veh, ESF1 / Fold change vs veh, TMEM50B / RFU, TAOK1 / Fold change vs veh, TAOK1 / RFU, ACBD3 / Fold change vs veh, ACBD3 / RFU, TMA16 / Fold change vs veh, TMA16 / RFU, RWDD3 / Fold change vs veh, RWDD3 / RFU, BCAT1 / Fold change vs veh, BCAT1 / RFU, EDEM3 / Fold change vs veh, EDEM3 / RFU, TMEM33 / Fold change vs veh, TMEM33 / RFU, WDR75 / Fold change vs veh, WDR75 / RFU, AHCTF1 / Fold change vs veh, AHCTF1 / RFU, TFRC / Fold change vs veh, TFRC / RFU, ZDHHC17 / Fold change vs veh, ZDHHC17 / RFU, NOM1 / Fold change vs veh, NOM1 / RFU, ARL8B / Fold change vs veh, ARL8B / RFU, ZBTB11 / Fold change vs veh, ZBTB11 / RFU, TAMM41 / Fold change vs veh, TAMM41 / RFU, KIAA1704 /// LOC100996395 / Fold change vs veh, KIAA1704 /// LOC100996395 / RFU, ING1 / Fold change vs veh, ING1 / RFU, TRMT61B / Fold change vs veh, TRMT61B / RFU, FUBP3 / Fold change vs veh, FUBP3 / RFU, TP53 / Fold change vs veh, TP53 / RFU, TNKS2 / Fold change vs veh, TNKS2 / RFU, ZFP14 / Fold change vs veh, ZFP14 / RFU, ACTR2 / Fold change vs veh, ACTR2 / RFU, PPP3R1 / Fold change vs veh, PPP3R1 / RFU, PIK3R1 / Fold change vs veh, PIK3R1 / RFU, HNRNPA1 / Fold change vs veh, HNRNPA1 / RFU, RNF170 / Fold change vs veh, RNF170 / RFU, ZNF28 / Fold change vs veh, ZNF28 / RFU, RNGTT / Fold change vs veh, RNGTT / RFU, OGT / Fold change vs veh, OGT / RFU, BRD1 / Fold change vs veh, BRD1 / RFU, MARS / Fold change vs veh, MARS / RFU, ZNF655 / Fold change vs veh, ZNF655 / RFU, FAHD1 / Fold change vs veh, FAHD1 / RFU, BDP1 / Fold change vs veh, BDP1 / RFU, LRRCC1 / Fold change vs veh, LRRCC1 / RFU, ARID1A / Fold change vs veh, ARID1A / RFU, ZNF146 / Fold change vs veh, ZNF146 / RFU, ZNF330 / Fold change vs veh, ZNF330 / RFU, GPN3 / Fold change vs veh, GPN3 / RFU, C9orf123 / Fold change vs veh, C9orf123 / RFU, N4BP2L2 / Fold change vs veh, N4BP2L2 / RFU, ARFIP1 / Fold change vs veh, ARFIP1 / RFU, FAM179B / Fold change vs veh, FAM179B / RFU, BCL10 / Fold change vs veh, BCL10 / RFU, UHRF1BP1L / Fold change vs veh, UHRF1BP1L / RFU, BET1 / Fold change vs veh, BET1 / RFU, CNOT2 / Fold change vs veh, CNOT2 / RFU, ZNF268 / Fold change vs veh, ZNF268 / Fold change vs veh, ZNF507 / RFU, DGCR2 / Fold change vs veh, DGCR2 / RFU, WDSUB1 / Fold change vs veh, WDSUB1 / Fold change vs veh, HSP90B1 /// MIR3652 / RFU, ADSS / Fold change vs veh, ADSS / RFU, GK / Fold change vs veh, GK / RFU, ZNF148 / Fold change vs veh, ZNF148 / RFU, TAF9 / Fold change vs veh, TAF9 / RFU, SLC1A5 / Fold change vs veh, SLC1A5 / RFU, SLMO2 / Fold change vs veh, SLMO2 / RFU, ABCC4 / Fold change vs veh, ABCC4 / RFU, LOC101060439 /// RAP1B / Fold change vs veh, LOC101060439 /// RAP1B / RFU, RFX7 / Fold change vs veh, RFX7 / RFU, GTPBP10 / Fold change vs veh, GTPBP10 / RFU, CNEP1R1 / Fold change vs veh, CNEP1R1 / RFU, BIVM-ERCC5 /// ERCC5 / Fold change vs veh, BIVM-ERCC5 /// ERCC5 / RFU, ILF3 / Fold change vs veh, ILF3 / RFU 11762660_at / Fold change /veh 11762660_at / RFU VCAN (11757783_s_at) / Fold change /veh VCAN (11757783_s_at) / RFU DDX43 (11728927_at) / Fold change /veh DDX43 (11728927_at) / RFU KRT8 (11758188_x_at) / Fold change /veh KRT8 (11758188_x_at) / RFU NKD1 (11759106_at) / Fold change /veh NKD1 (11759106_at) / RFU SRD5A1 (11742802_a_at) / Fold change /veh SRD5A1 (11742802_a_at) / RFU TPSAB1 /// TPSB2 (11721975_s_at) / Fold change /veh TPSAB1 /// TPSB2 (11721975_s_at) / RFU GSTM3 (11746129_a_at) / Fold change /veh GSTM3 (11746129_a_at) / RFU IL23R (11737362_x_at) / Fold change /veh IL23R (11737362_x_at) / RFU TMEM51 (11727254_a_at) / Fold change /veh TMEM51 (11727254_a_at) / RFU PIWIL2 (11732686_x_at) / Fold change /veh PIWIL2 (11732686_x_at) / RFU ORM1 (11744905_x_at) / Fold change /veh ORM1 (11744905_x_at) / RFU CCDC152 (11743942_at) / Fold change /veh CCDC152 (11743942_at) / RFU ECM1 (11717891_a_at) / Fold change /veh ECM1 (11717891_a_at) / RFU IL23R (11748794_a_at) / Fold change /veh IL23R (11748794_a_at) / RFU TNFAIP8L3 (11732012_x_at) / Fold change /veh TNFAIP8L3 (11732012_x_at) / RFU MBOAT4 (11741988_at) / Fold change /veh MBOAT4 (11741988_at) / RFU 11764193_at / Fold change /veh 11764193_at / RFU TMEM53 (11763286_at) / Fold change /veh TMEM53 (11763286_at) / RFU MAGEB2 (11727129_at) / Fold change /veh MAGEB2 (11727129_at) / RFU TMEM200A (11744735_a_at) / Fold change /veh TMEM200A (11744735_a_at) / RFU CCDC152 (11751479_a_at) / Fold change /veh CCDC152 (11751479_a_at) / RFU FAM211A (11726209_a_at) / Fold change /veh FAM211A (11726209_a_at) / RFU RGS16 (11746705_a_at) / Fold change /veh RGS16 (11746705_a_at) / RFU VCAN (11755009_s_at) / Fold change /veh VCAN (11755009_s_at) / RFU RHOB (11743442_s_at) / Fold change /veh RHOB (11743442_s_at) / RFU RGS16 (11720943_a_at) / Fold change /veh RGS16 (11720943_a_at) / RFU RGS16 (11720944_at) / Fold change /veh RGS16 (11720944_at) / RFU, VPS4B / Fold change vs veh, VPS4B / RFU, CREB1 / Fold change vs veh, CREB1 / RFU, DNAJC13 / Fold change vs veh, DNAJC13 / RFU, GNAQ / Fold change vs veh, GNAQ / RFU, CDK5R1 / Fold change vs veh, CDK5R1 / RFU, ZRANB3 / Fold change vs veh, ZRANB3 / RFU, CUL4A / Fold change vs veh, CUL4A / RFU, CCNY / Fold change vs veh, CCNY / RFU, UFL1 / Fold change vs veh, UFL1 / RFU, COG3 / Fold change vs veh, COG3 / RFU, DIAPH2 / Fold change vs veh, DIAPH2 / RFU, SKA2 / Fold change vs veh, SKA2 / RFU, AFF3 / Fold change vs veh, AFF3 / RFU, LMF1 / Fold change vs veh, LMF1 / RFU, IPO11 / Fold change vs veh, IPO11 / RFU, DFFB / Fold change vs veh, DFFB / RFU, FOXP1 / Fold change vs veh, FOXP1 / RFU, CARD8 / Fold change vs veh, CARD8 / RFU, STRN3 / Fold change vs veh, STRN3 / RFU, ADK / Fold change vs veh, ADK / RFU, RASSF2 / Fold change vs veh, RASSF2 / RFU, WIPF1 / Fold change vs veh, WIPF1 / RFU, LARP1B / Fold change vs veh, LARP1B / RFU, RASA1 / Fold change vs veh, RASA1 / RFU, RB1 / Fold change vs veh, RB1 / RFU, PPFIA1 / Fold change vs veh, PPFIA1 / RFU, MAT2A / Fold change vs veh, MAT2A / RFU, CCT5 / Fold change vs veh, CCT5 / RFU, WDR92 / Fold change vs veh, WDR92 / RFU, CUX1 / Fold change vs veh, CUX1 / RFU, TTC7A / Fold change vs veh, TTC7A / RFU, TMEM135 / Fold change vs veh, TMEM135 / RFU, DEPTOR / Fold change vs veh, DEPTOR / RFU, CPM / Fold change vs veh, CPM / RFU, DNAJB6 / Fold change vs veh, DNAJB6 / RFU, CACNA2D3 / Fold change vs veh, CACNA2D3 / RFU, DTX4 / Fold change vs veh, DTX4 / RFU, TFCP2 / Fold change vs veh, TFCP2 / RFU, GMCL1 /// GMCL1P1 / Fold change vs veh, GMCL1 /// GMCL1P1 / RFU, AEBP2 / Fold change vs veh, AEBP2 / RFU, SNHG1 /// SNORD22 /// SNORD25 /// SNORD26 /// SNORD27 /// SNORD28 /// SNORD29 /// SNORD31 / Fold change vs veh, SNHG1 /// SNORD22 /// SNORD25 /// SNORD26 /// SNORD27 /// SNORD28 /// SNORD29 /// SNORD31 / Fold change (Aza/veh), C12orf56 (ProbeSet 11735607_a_at) / Fold change (ACY-1035/veh), C12orf56 (ProbeSet 11735607_a_at) / Fold change (Aza/veh), FGFR1OP (ProbeSet 11751329_s_at) / Fold change (ACY-1035/veh), FGFR1OP (ProbeSet 11751329_s_at) / Fold change (Aza/veh), VPS36 (ProbeSet 11739960_a_at) / Fold change (ACY-1035/veh), VPS36 (ProbeSet 11739960_a_at) / RFU SYPL1 (11715823_x_at) / Fold change /veh SYPL1 (11715823_x_at) / RFU IGFBP7 (11715501_s_at) / Fold change /veh IGFBP7 (11715501_s_at) / RFU REEP3 (11722064_at) / Fold change /veh REEP3 (11722064_at) / RFU IGLL1 (11728026_x_at) / Fold change /veh IGLL1 (11728026_x_at): dose or concentration left out as unconfirmed
Conditions: ProbeSet 11734782_x_at; LIST D

## Nc1ncn([C@@H]2O[C@H](CO)[C@@H](O)[C@H]2O)c(=O)n1 [azacitidine]
  Fold change vs veh, WDR92: 0.69
